Assay results as given in US9493436B2, “Tyrosine phosphatase inhibitors and uses thereof to modulate the activity of enzymes involved in the pathology of Mycobacterium tuberculosis” (priority 2011, dated 2016).
Read-outs that look alike come from different tables or passages of the source.

Target: T1, mPTPB (Mycobacterium tuberculosis, UniProt I6WXK4)
T1 construct: The full-length mPTPB with a N-terminal His6-tag was expressed and purified; His6 (N); made in house; host or cells: E. coli BL21/DE3 (pET28b-mPTPB)
T1 sequence (I6WXK4 1-276): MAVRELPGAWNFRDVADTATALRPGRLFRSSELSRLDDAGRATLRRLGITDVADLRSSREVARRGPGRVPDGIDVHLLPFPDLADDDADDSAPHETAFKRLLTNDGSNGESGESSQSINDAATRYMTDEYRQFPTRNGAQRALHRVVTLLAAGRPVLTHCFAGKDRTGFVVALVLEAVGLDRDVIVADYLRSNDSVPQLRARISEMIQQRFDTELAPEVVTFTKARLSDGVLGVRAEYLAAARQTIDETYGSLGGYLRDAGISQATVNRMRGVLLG
Experiment: biochemical
Type: biochemical
Conditions: for In % @ 1 μM (mPTPB): library 13 screened in situ

[1] = pNPP substrate, pH 7.0, 25° C., read-out: IC50 (μM) against mPTPB

| SMILES | IC50 [1] | In % @ 1 μM (mPTPB) | IC50 (read-out: IC50 for mPTPB) |
| --- | --- | --- | --- |
| C#Cc1c(-c2ccc(OC(F)(F)F)cc2)oc2cc(O)c(C(=O)O)cc12 [35 (Core73)] | 1.71 µM | – | – |
| O=C(O)c1cc2c(C#Cc3ccc(Oc4ccccc4)cc3)c(-c3ccccc3)oc2cc1O [34 (L01Z12)] | 0.043 µM | – | – |
| O=C(O)c1cc2c(C#Cc3ccc(Cl)c(Cl)c3)c(-c3ccc(OC(F)(F)F)cc3)oc2cc1O [37 (L73Z02)] | 0.12 µM | – | – |
| Cn1c(C2CCCCC2)c(I)c2cc(C(=O)O)c(O)cc21 [Compound 207d, 2-cyclohexyl-6-hydroxy-3-iodo-1-methyl-1H-indole-5-carboxylic acid] | 3.6 ± 0.1 µM | – | – |
| Cn1c(-c2ccccc2F)c(I)c2cc(C(=O)O)c(O)cc21 [Compound 207j, 2-(2-fluorophenyl)-6-hydroxy-3-iodo-1-methyl-1H-indole-5-carboxylic acid] | 16 ± 2 µM | – | – |
| Cn1c(-c2ccccc2C(F)(F)F)c(C#Cc2ccc(Oc3ccccc3)cc2)c2cc(C(=O)O)c(O)cc21 [Compound 209d, 6-hydroxy-1-methyl-3-((4-phenoxyphenyl)ethynyl)-2-(2-(trifluoromethyl)phenyl)-1H-indole-5-carboxylic acid] | 0.46 ± 0.06 µM | – | – |
| CC(C)[C@H]1CC[C@H](C)C[C@@H]1OCC(=O)NCCC(=O)c1c(-c2ccccc2C(F)(F)F)n(C)c2cc(O)c(C(=O)O)cc12 [Compound 213c, 6-hydroxy-3-(3-(2-(((1S,2R,5S)-2-isopropyl-5-methylcyclohexyl)oxy)acetamido)propanoyl)-1-methyl-2-(2-(trifluoromethyl)phenyl)-1H-indole-5-carboxylic acid] | 3.3 ± 0.1 µM | 5% | – |
| Cn1c(-c2ccc(OC(F)(F)F)cc2)c(I)c2cc(C(=O)O)c(O)cc21 [Compound 207e, 6-hydroxy-3-iodo-1-methyl-2-(4-(trifluoromethoxy)phenyl)-1H-indole-5-carboxylic acid] | 5.5 ± 0.5 µM | – | – |
| O=C(O)c1cc2c(C=Cc3cccc(C(F)(F)F)c3)c(-c3ccccc3)oc2cc1O [44 (L01X09)] | 1.2 µM | – | – |
| C#Cc1c(-c2ccc(Oc3ccccc3)cc2)oc2cc(O)c(C(=O)O)cc12 [40 (Core69)] | 2.3 µM | – | – |
| CC(C)c1ccc(NC(=O)COc2cccc(-c3oc4cc(O)c(C(=O)O)cc4c3C#Cc3cccc(Cl)c3)c2)cc1 | – | – | ~0.025 µM |
| Cn1c(-c2ccccc2C(F)(F)F)c(C(=O)CCNC(=O)c2cccc(I)c2)c2cc(C(=O)O)c(O)cc21 [Compound 213b, 6-hydroxy-3-(3-(3-iodobenzamido)propanoyl)-1-methyl-2-(2-(trifluoromethyl)phenyl)-1H-indole-5-carboxylic acid] | 0.68 ± 0.04 µM | 52% | – |
| Cn1c(-c2ccc(-c3ccccc3)cc2)c(I)c2cc(C(=O)O)c(O)cc21 [Compound 207c, 2-([1,1′-biphenyl]-4-yl)-6-hydroxy-3-iodo-1-methyl-1H-indole-5-carboxylic acid] | 2.4 ± 0.2 µM | – | – |
| C#Cc1c(-c2ccc(-c3ccccc3)cc2)oc2cc(O)c(C(=O)O)cc12 [41 (Core71)] | 0.85 µM | – | – |
| CC(=O)NCCC(=O)c1c(-c2ccccc2C(F)(F)F)n(C)c2cc(O)c(C(=O)O)cc12 [Compound 213e, 3-(3-acetamidopropanoyl)-6-hydroxy-1-methyl-2-(2-(trifluoromethyl)phenyl)-1H-indole-5-carboxylic acid] | > 20 µM | 0% | – |
| Cn1c(-c2ccccc2C(F)(F)F)c(C#Cc2ccccc2C(F)(F)F)c2cc(C(=O)O)c(O)cc21 [Compound 209c, 6-hydroxy-1-methyl-2-(2-(trifluoromethyl)phenyl)-3-((2-(trifluoromethyl)phenyl)ethynyl)-1H-indole-5-carboxylic acid] | 0.3 ± 0.05 µM | – | – |
| O=C(O)c1cc2c(C#Cc3cccc(Cl)c3)c(-c3ccc(OC(F)(F)F)cc3)oc2cc1O [36 (L73Z01)] | 0.082 µM | – | – |
| Cn1c(-c2cccc(F)c2)c(I)c2cc(C(=O)O)c(O)cc21 [Compound 207h, 2-(3-fluorophenyl)-6-hydroxy-3-iodo-1-methyl-1H-indole-5-carboxylic acid] | 11 ± 1 µM | – | – |
